Test results as given in ChEMBL document CHEMBL5108013, “Crescent-shaped meta-substituted benzene derivatives as a new class of non-nucleoside ribonuclease A inhibitors” (Bioorg Med Chem, 2022).
Activity calls are given as the source filed them. The calls are words filed in the database; no cut-off is given here.

Columns and labels:
Ribonuclease pancreatic [1] = target: T1, Ribonuclease pancreatic (Bos taurus, UniProt P61823); experiment: Competitive inhibition of bovine pancreatic RNase A using 2',3'-cCMP as substrate by Lineweaver-Burk plot analysis
T1 sequence (P61823 whole entry): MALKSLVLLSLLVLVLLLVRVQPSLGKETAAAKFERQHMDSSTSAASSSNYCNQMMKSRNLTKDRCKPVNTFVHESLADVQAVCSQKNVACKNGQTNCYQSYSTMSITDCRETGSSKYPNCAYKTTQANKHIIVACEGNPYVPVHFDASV

[2] = target: T2, Ribonuclease pancreatic (Bos taurus) (UniProt P61823); experiment: Inhibition of bovine pancreatic RNase A assessed as increase in RNA band intensity using RNA as substrate incubated for 3 hrs followed by RNA addition for 30 mins by ethidium bromide staining based agarose gel electrophoresis; settings: time 210.0 min
T2 sequence (whole entry): T1 sequence (P61823 whole entry)

Ribonuclease pancreatic [3] = target: T1, Ribonuclease pancreatic; experiment: Non-competitive inhibition of bovine pancreatic RNase A using 2',3'-cCMP as substrate by Lineweaver-Burk plot analysis
Ribonuclease pancreatic [4] = target: T1, Ribonuclease pancreatic; experiment: Inhibition of bovine pancreatic RNase A using 2',3'-cCMP as substrate by Lineweaver-Burk plot analysis
Ribonuclease pancreatic [5] = target: T1, Ribonuclease pancreatic; experiment: Inhibition of bovine pancreatic RNase A assessed as reduction in CpG cleavage by spectrophotometric analysis

SMILES | Ki (Ribonuclease pancreatic [1]) [µM] | inhibition [2] | also measured
O=C(O)c1cc(-n2cc(CS(=O)(=O)O)nn2)cc(-n2cc(CS(=O)(=O)O)nn2)c1 | 12 | Active | 
O=C(O)C1CCN(C(=O)c2cccc(C(=O)N3CCC(C(=O)O)CC3)c2)CC1 |  | Active | Ki (Ribonuclease pancreatic [3]): 617 µM
O=C(O)c1cc(-n2cc(C(=O)O)nn2)cc(-n2cc(C(=O)O)nn2)c1 | 28 | Active | 
Cc1cn([C@H]2C[C@H](NC(=O)[C@@H](CC(=O)O)NC(=O)[C@H]3O[C@@H](n4ccc(=O)[nH]c4=O)[C@H](O)[C@@H]3O)[C@@H](CO)O2)c(=O)[nH]c1=O |  |  | Ki (Ribonuclease pancreatic [4]): 66.7 µM
O=C(Nc1ccc(Cc2ccc(NC(=O)c3cccc([N+](=O)[O-])c3)c(C(=O)O)c2)cc1C(=O)O)c1cccc([N+](=O)[O-])c1 |  |  | Ki (Ribonuclease pancreatic [5]): 21 µM
O=S(=O)(O)CCn1cc(COC[C@@H]2O[C@H](Cn3cc(CS(=O)(=O)O)nn3)[C@@H](O)[C@H]2O)nn1 |  |  | Ki (Ribonuclease pancreatic [4]): 29 µM
O=C(O)c1cc(C(=O)N2CCC(C(=O)O)CC2)cc(C(=O)N2CCC(C(=O)O)CC2)c1 | 272 | Active | 
Cc1cn([C@H]2C[C@H](NC(=O)[C@@H](CC(=O)O)NC(=O)[C@H]3O[C@@H](n4cnc5c(N)ncnc54)[C@H](O)[C@@H]3O)[C@@H](CO)O2)c(=O)[nH]c1=O |  |  | Ki (Ribonuclease pancreatic [4]): 32 µM

Now from value to compound, other results behind:

Ki (Ribonuclease pancreatic [1]) [µM] | inhibition [2] | SMILES | also measured
32 | Active | O=S(=O)(O)Cc1cn(-c2cccc(-n3cc(CS(=O)(=O)O)nn3)c2)nn1 | 
44 | Active | O=C(O)c1cc(-n2cc(CO)nn2)cc(-n2cc(CO)nn2)c1 | 
60 | Active | O=C(O)c1cn(-c2cccc(-n3cc(C(=O)O)nn3)c2)nn1 | 
79 | Active | OCc1cn(-c2cccc(-n3cc(CO)nn3)c2)nn1 | 
